# Laboratory results published in patent US9308260B2, “Anticonvulsive pharmaceutical compositions” (INSERM (INSTITUT NATIONAL DE LA SANTE ET DE LA RECHERCHE …, priority 2007, dated 2016).
# “Also recorded” adds a separate entry of the source.
# Columns and labels:
# [1] = Blood/plasma amino acid concentrations in vigabatrin-treated rats; format: in vivo, rat
# Description: (§1) As described previously (Duboc et al., 2004), Wistar rats Rj Wi IOPS Han and Balb c mice were purchased from Janvier Breeding Center (Le Genest St Isle, France) at 7 weeks. VGB was dissolved in 0.9% NaCl at a concentration of 125 mg/ml. It was administered at 40 mg (125 mg/ml, 0.32 ml) by daily intraperitoneal injection for 45 or 65 days and at 3 mg (60 mg/ml, 0.05 ml) to mice for 29 days (daily dose of about 200 mg/kg in rats and 150 mg/kg in mice). Vitamin B6 (active form) was administered at a dose of 1 mM/kg (solution 154.46 mg/ml) whereas taurine was provided in the drinking water at 0.1 mol/l.
# After 65 days of injection, rats were anesthetized for blood sampling. Anesthesia was induced as described above. Under anesthesia an indwelling catheter was placed in the carotid artery. This method allowed obtaining a single, large, good quality blood sample. A 1 mL blood sampling was taken for each rat in a heparinized blood sampler, immediately centrifuged and frozen at −80° C. Automated amino acid ion chromatography (Pasteur Cerba, France) was used for the quantitative determination of total and free amino acids in the samples.
# As described previously (Duboc, A., et al. Vigabatrin, the GABA-transaminase inhibitor, damages cone photoreceptors in rats. Annals of neurology Vol. 55, 695-705 (2004).), Wistar rats Rj Wi IOPS Han or BALB/c mice were purchased from Janvier (Le Genest-St-Isle, France) at between six and seven weeks of age. VGB dissolved in 0.9% NaCl was administered at 40 mg (125 mg/ml, 0.32 ml) to rats by daily intraperitoneal injection for 45 or 65 days and at 3 mg (60 mg/ml, 0.05 ml) to mice for 29 days. These daily doses (rats: 200 mg/kg; mice: 150 mg/kg) are in-line with those described for the treatment of epilepsy in animals (Andre, V., Ferrandon, A., Marescaux, C. & Nehlig, A. Vigabatrin protects against hippocampal damage but is not antiepileptogenic in the lithium-pilocarpine model of temporal lobe epilepsy. Epilepsy research Vol. 47, 99-117 (2001)) or in humans (adult patients: 1-6 mg/kg; children: 50-75 mg/kg; or infants: 100-400 mg/kg) (Chiron, C., Dumas, C., Jambaque, I., Mumford, J. & Dulac, O. Randomized trial comparing vigabatrin and hydrocortisone in infantile spasms due to tuberous sclerosis. Epilepsy research Vol. 26, 389-395 (1997); Lux, A. L., et al. The United Kingdom Infantile Spasms Study comparing vigabatrin with prednisolone or tetracosactide at 14 days: a multicentre, randomised controlled trial. Lancet Vol. 364, 1773-1778 (2004); Aicardi, J., Mumford, J. P., Dumas, C. & Wood, S. Vigabatrin as initial therapy for infantile spasms: a European retrospective survey. Sabril IS Investigator and Peer Review Groups. Epilepsia Vol. 37, 638-642 (1996)). Taurine supplementation was given in drinking water at a concentration of 0.1M. […]
# [2] = tested on: Wistar rats; assay: Photopic electroretinogram (ERG) in vigabatrin-treated rats; format: in vivo, rat
# Description: as §1
# (§2) ERG were recorded as described previously after the last VGB injection (Duboc et al., 2004). Anesthesia was induced by an intramuscular injection of a solution containing ketamine (100 mg/kg) and xylazine (10 mg/kg). After 10 min adaptation to a 2.5 cdm^−2 light intensity, ten recordings were obtained with flash intensity of 10 cdsm^−2 at an interstimulus interval 30 s and subsequently averaged. These photopic ERG measurements were performed after 59 days in rats and 29 days in mice.
# As described previously (Duboc, A., et al. Vigabatrin, the GABA-transaminase inhibitor, damages cone photoreceptors in rats. Annals of neurology Vol. 55, 695-705 (2004).), Wistar rats Rj Wi IOPS Han or BALB/c mice were purchased from Janvier (Le Genest-St-Isle, France) at between six and seven weeks of age. VGB dissolved in 0.9% NaCl was administered at 40 mg (125 mg/ml, 0.32 ml) to rats by daily intraperitoneal injection for 45 or 65 days and at 3 mg (60 mg/ml, 0.05 ml) to mice for 29 days. […]
# Photopic ERGs were recorded after the last VGB injection, as described previously (Duboc, A., et al. Vigabatrin, the GABA-transaminase inhibitor, damages cone photoreceptors in rats. Annals of neurology Vol. 55, 695-705 (2004).). […]
# [3] = tested on: BALB/c mice; assay: Photopic electroretinogram (ERG) in vigabatrin-treated mice; format: in vivo, mouse; settings: 29 days
# Description: as §1, §2
# (§3) As described previously (Duboc, A., et al. Vigabatrin, the GABA-transaminase inhibitor, damages cone photoreceptors in rats. Annals of neurology Vol. 55, 695-705 (2004).), Wistar rats Rj Wi IOPS Han or BALB/c mice were purchased from Janvier (Le Genest-St-Isle, France) at between six and seven weeks of age. VGB dissolved in 0.9% NaCl was administered at 40 mg (125 mg/ml, 0.32 ml) to rats by daily intraperitoneal injection for 45 or 65 days and at 3 mg (60 mg/ml, 0.05 ml) to mice for 29 days. These daily doses (rats: 200 mg/kg; mice: 150 mg/kg) are in-line with those described for the treatment of epilepsy in animals (Andre, V., Ferrandon, A., Marescaux, C. & Nehlig, A. Vigabatrin protects against hippocampal damage but is not antiepileptogenic in the lithium-pilocarpine model of temporal lobe epilepsy. Epilepsy research Vol. 47, 99-117 (2001)) or in humans (adult patients: 1-6 mg/kg; children: 50-75 mg/kg; or infants: 100-400 mg/kg) (Chiron, C., Dumas, C., Jambaque, I., Mumford, J. & Dulac, O. Randomized trial comparing vigabatrin and hydrocortisone in infantile spasms due to tuberous sclerosis. Epilepsy research Vol. 26, 389-395 (1997); Lux, A. L., et al. The United Kingdom Infantile Spasms Study comparing vigabatrin with prednisolone or tetracosactide at 14 days: a multicentre, randomised controlled trial. Lancet Vol. 364, 1773-1778 (2004); Aicardi, J., Mumford, J. P., Dumas, C. & Wood, S. Vigabatrin as initial therapy for infantile spasms: a European retrospective survey. Sabril IS Investigator and Peer Review Groups. Epilepsia Vol. 37, 638-642 (1996)). Taurine supplementation was given in drinking water at a concentration of 0.1M. Light intensity in the animal cages ranged between 125 and 130 lux for rats and between 70 and 85 lux for mice.
# Photopic ERGs were recorded after the last VGB injection, as described previously (Duboc, A., et al. Vigabatrin, the GABA-transaminase inhibitor, damages cone photoreceptors in rats. Annals of neurology Vol. 55, 695-705 (2004).). Anesthesia was induced by intraperitoneal injection (0.8 to 1.2 ml/kg) of a solution containing ketamine (40 mg/ml) and xylazine (4 mg/ml Rompum). Animals were light-adapted for 10 minutes with a background light of 25 cdm^−2. Light flashes were then applied on this background light; the light intensity of the flash was 10 cdsm^−2 for the mouse experiments and for the rats maintained in darkness (FIGS. 2, 6) or 25 cdsm^−2 for other experiments (FIGS. 3, 5). Ten recordings were averaged with an interstimulus interval of 30 s.
# [4] = tested on: Wistar rats; assay: Retinal histology quantification in vigabatrin-treated rats; format: in vivo, rat
# Description: as §3, with “mice. […]” for “mice.”
# (§4) For quantification, vertical sections along the dorso-ventral axis were selected at the optic nerve. Following DAPI nuclear staining, the lengths of disorganised retinal areas were measured; GFAP immunostaining was used for detection and quantificationof retinal areas with reactive gliosis. […]
# [5] = tested on: BALB/c mice; assay: Retinal histology quantification in vigabatrin-treated mice; format: in vivo, mouse
# Description: as §3
# Eye cups were fixed overnight at 4° C. in 4% (wt/vol) paraformaldehyde in phosphate buffered saline (PBS; 0.01M, pH 7.4). The tissue was cryoprotected in successive solutions of PBS containing 10%, 20% and 30% sucrose at 4° C., oriented along the dorso-ventral axis and embedded in OCT (Labonord, Villeneuve d′Ascq, France). Retinal sections (8-10 μm thickness) were permeabilised for five minutes in PBS containing 0.1% Triton X-100 (Sigma, St. Louis, Mo.), rinsed, and incubated in PBS containing 1% bovine serum albumin (Eurobio, Les-Ulis, France), 0.1% Tween 20 (Sigma), and 0.1% sodium azide (Merck, Fontenay-Sous-Bois, France) for two hours at room temperature. The primary antibody added to the solution was incubated for two hours at room temperature. Polyclonal antibodies were directed against VGluT1 (1:2000, Chemicon), rabbit GFAP (1/400, Dako, USA) and mouse cone arrestin (Zhu, X., et al. Mouse cone arrestin expression pattern: light induced translocation in cone photoreceptors. Molecular vision Vol. 8, 462-471 (2002)) (Luminaire junior, LUMIj, 1:20,000). Monoclonal antibodies were directed against Goa (1:2000, Chemicon). Sections were rinsed and then incubated with the secondary antibody, goat anti-rabbit IgG or rabbit anti-mouse IgG conjugated to either Alexa TM594 or Alexa TM488 (1:500, Molecular Probes, Eugene, Oreg.) for two hours. […]
# as §4
# [6] = Plasma taurine levels in infants with infantile spasms receiving VGB therapy; format: in vivo, human; settings: for Taurine level: measured
# Description: Blood samples were collected in haemolysis tubes containing heparin (14 IU/ml) and centrifuged (2200 g, 15 min). Plasma amino-acid analysis was performed by ion-exchange chromatography with nihydrin detection using a JEOL AMINOTAC analyser.
# We then evaluated whether these findings have any clinical relevance in patients with epilepsy. Plasma taurine levels were reviewed retrospectively in patients presenting infantile spasms, who had received VGB treatment for at least six months in Necker Hospitals for the last 3 years. Plasma amino-acid levels are routinely measured in patients with infantile spasms as part of their etiological work-up, particularly when brain RMI is negative. Data were available in six patients (Table 2 hereunder). […] For one of these two patients (patient 2), the taurine level was measured before starting a 15 month period of VGB therapy and this taurine level was normal. In patient 6, the taurine level was in the lower part of the normal range, but this measurement could have been overestimated by the delayed blood centrifugation. Thus, taurine levels seem to be decreased in VGB-treated epileptic infants.
# [7] = vigabatrin alone versus control, listed as Vigabatrin
# [8] = vigabatrin alone versus control, listed as vigabatrin
# [9] = supplementation in addition to vigabatrin
# [10] = VGB with taurine supplementation versus without, p<0.001
smiles,measurement,setting,value
"C=CC(N)CCC(=O)O (stereo not drawn) [VGB, 4-amino-5-hexenoic acid]",Decrease of taurine level versus control animals,"[1]; VGB-treated rats, 65 days, p<0.05",67%
same,Reduction of methionine concentration versus control animals,"[1]; VGB-treated rats, 65 days, significant",22%
same,Reduction of glutamic acid concentration versus control animals,"[1]; VGB-treated rats, 65 days, statistically significant",56%
same,Photopic ERG amplitude,[2]; [7],decrease
same,Photopic ERG amplitude,[2]; [8],decrease in amplitude
same,Photopic ERG amplitude,[3]; vigabatrin alone versus control,significantly lower photopic ERG amplitude than the control group
same,Photopic ERG amplitude,[3]; [7],decrease
same,Photopic ERG amplitude,[3]; [8],decrease in amplitude
same,GFAP immunostaining,[4]; VGB alone,increase in GFAP immunostaining
same,Sprouting of bipolar cell dendrites,[5]; VGB alone,observed
same,Density of cone outer and inner segments,"[5]; VGB alone versus control, p<0.001",lower densities
same,Taurine level,"[6]; patient 1, VGB, normal 70 ± 22, delay to plasma preparation <2 h",und*
same,Taurine level,"[6]; patient 2, VGB, normal 70 ± 22, delay <2 h",und
same,Taurine levels in VGB-treated epileptic infants (overall),"[6]; six patients, VGB for at least six months",decreased
"NCCS(=O)(=O)O [taurine, 2-aminoethanesulfonic acid]",Plasma levels of taurine,"[1]; taurine 0.1M in drinking water of VGB-treated rats, n=7",increased above those of control animals
same,Photopic ERG amplitude,"[2]; supplementation in addition to vigabatrin, versus vigabatrin alone",decreased less than in vigabatrin alone; also recorded: greater in VGB-treated animals receiving taurine supplementation; also recorded: smaller decrease in photopic ERG amplitude
same,Photopic ERG amplitude,[3]; [9],no longer statistically significant; also recorded: smaller decrease in photopic ERG amplitude
same,Photopic ERG amplitude,"[3]; supplementation in addition to vigabatrin, listed as Taurine",suppressed this decrease in photopic ERG amplitude
same,GFAP immunostaining,[4]; [10],less extensive in animals receiving taurine supplementation
same,Cone segment density,"[4]; VGB with taurine supplementation versus without, p<0.05",greater in the VGB-treated group with taurine supplementation
same,Sprouting of bipolar cell dendrites,[5]; VGB with taurine supplementation,completely suppressed
same,Disorganisation of the outer nuclear layer (areas of retinal disorganisation),[5]; [10],smaller areas of retinal disorganisation
same,Density of cone outer and inner segments,"[5]; VGB with taurine supplementation, p<0.001",prevented this decrease in cone density
"Cc1ncc(COP(=O)(O)O)c(C=O)c1O [vitamin B6, pyridoxal-5′-phosphate]",Photopic ERG amplitude,[3]; [9],reduced the decrease in photopic ERG amplitude; also recorded: smaller decrease in photopic ERG than with vigabatrin alone
